Measurements reported in US8937067B2, “Activators of human pyruvate kinase” (The United States of America, as represented by the …, priority 2008, dated 2015).
Values joined by “and” are separate entries in the source; they are usually repeats but may differ in a detail not shown here. Identical values can stand only once.

What was measured:
hPK-M2 [1] = target: T1, hPK-M2 (Homo sapiens, UniProt P14618); assay: Fluorescent pyruvate kinase-lactate dehydrogenase (LDH) coupled secondary assay; format: biochemical; conditions: for LDH hPK, M2 Max. Res.: % activation at 57 μM of compound; for Emax: read-out: maximum response, LDH assay
T1 sequence (P14618 whole entry): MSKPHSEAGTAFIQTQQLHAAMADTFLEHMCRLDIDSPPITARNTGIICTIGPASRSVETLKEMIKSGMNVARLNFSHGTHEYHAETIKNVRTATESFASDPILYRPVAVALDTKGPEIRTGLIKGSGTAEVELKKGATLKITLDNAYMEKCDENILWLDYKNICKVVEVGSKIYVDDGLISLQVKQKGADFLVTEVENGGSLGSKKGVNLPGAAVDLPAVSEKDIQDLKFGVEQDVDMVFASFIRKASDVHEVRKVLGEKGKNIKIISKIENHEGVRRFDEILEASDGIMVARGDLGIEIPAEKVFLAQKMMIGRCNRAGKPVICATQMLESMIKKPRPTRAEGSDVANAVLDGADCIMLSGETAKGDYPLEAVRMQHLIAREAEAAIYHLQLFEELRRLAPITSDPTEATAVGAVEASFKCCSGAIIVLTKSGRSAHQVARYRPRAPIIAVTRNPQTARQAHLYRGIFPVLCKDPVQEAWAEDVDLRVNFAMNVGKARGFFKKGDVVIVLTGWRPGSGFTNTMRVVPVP
Method: Fluorescent Pyruvate Kinase-Lactate Dehydrogenase Coupled Secondary Assay.
Plates were immediately placed in ViewLux (Perkin Elmer) and NADH fluorescence was determined at 30 second exposure intervals for between 3 and 6 minutes. Data were normalized to the uninhibited and EC100 activation using known activators such as fructose-1,6-bis-phosphate. […] Data was collected on the Perkin Elmer Viewlux.

hPK-M2 [2] = target: T1, hPK-M2; assay: Luminescent pyruvate kinase-luciferase coupled assay (KinaseGlo); format: biochemical; conditions: for hPK, M2 Max. Res. / activation at 57 µM: KinaseGlo, % activation at 57 μM of compound; for activation at 57 µM: read-out: hPK, M2 Max. Res.; for Emax / maximum response: relative to activation by FBP; for Emax: read-out: maximum response
Procedure, shortened: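 Activation assay with 0.1 mM ADP and 0.5 mM PEP in 50 mM imidazole pH 7.2, 50 mM KCl, 7 mM MgCl2, 0.01% tween 20, 0.05% BSA; 1 h at r.t. ATP produced was read by luciferase luminescence. AC50 values were normalized to DMSO (uninhibited enzyme) and no-enzyme controls.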

[3] = tables, read-out: LDH hPK, M2 AC50
[4] = luminescent pyruvate kinase-luciferase coupled assay (KinaseGlo), tables, read-out: hPK, M2 AC50
[5] = luciferase-coupled assay, read-out: AC50

| SMILES | LDH hPK, M2 Max. Res. (hPK-M2 [1]) [%] | AC50 (hPK-M2 [1]; [3]) [nM] | hPK, M2 Max. Res. (hPK-M2 [2]) [%] | AC50 (hPK-M2 [2]; [4]) [nM] | AC50 (hPK-M2 [1]; read-out: AC50, LDH assay) [nM] | Emax (hPK-M2 [1]) [%] | activation at 57 µM (hPK-M2 [2]) [%] | Emax (hPK-M2 [2]; luciferase-coupled assay) [%] | AC50 (hPK-M2 [2]; [5]) [nM] | maximum response (hPK-M2 [2]; luciferase-coupled assay) | maximum response, LDH assay (hPK-M2 [1]) [%] |
| --- | --- | --- | --- | --- | --- | --- | --- | --- | --- | --- | --- |
| O=S(=O)(c1cccc(O)c1)N1CCN(S(=O)(=O)c2c(F)cccc2F)CC1 [Compound 140] | 148.41 | 183 | 89.61 | 183 | – | – | – | – | – | – | – |
| COc1ccc(Cn2ncc3c4sc(C)cc4n(C)c3c2=O)cc1 [Compound 111, 2,4-Methyl-6-[(4-methoxyphenyl)methyl]-4H-thieno[3,2-b]pyrrole[3,2-d]pyridazinone] | – | – | – | 37 ± 10 | 230 ± 40 | 258 | 96.2 ± 2.5 | – | – | – | – |
| Cn1c2cc([S+](C)[O-])sc2c2cnn(Cc3ccccc3F)c(=O)c21 (stereo not drawn) [Compound 73, 2-Methylsulfinyl-4-methyl-6-[(2-fluorophenyl)methyl]-4H-thieno[3,2-b]pyrrole[3,2-d]pyridazinone] | – | – | – | 25 ± 10 | 190 ± 10 | 211 | 97.9 ± 3.1 | – | – | – | – |
| Cc1cc2c(s1)c1cnn(Cc3ccc(C(F)(F)F)cc3F)c(=O)c1n2C [Compound 120, 2,4-Methyl-6-[(2-fluoro-4-trifluoromethylphenyl)methyl]-4H-thieno[3,2-b]pyrrole[3,2-d]pyridazinone] | – | – | – | – | – | < 80 | 59.3 ± 18 | < 80 | – | – | – |
| Nc1ccc(S(=O)(=O)N2CCN(S(=O)(=O)c3c(F)cccc3F)CC2)cc1 [Compound 123] | 170.98 | 410 | – | 651 | – | – | 82.6 | – | – | – | – |
| O=S(=O)(N[C@H]1CC[C@H](NS(=O)(=O)c2c(F)cccc2F)CC1)c1ccc2c(c1)OCCO2 [Compound 37, N-((trans)-4-(2,6-difluorophenylsulfonamido)cyclohexyl)-2,3-dihydrobenzo[b][1,4]dioxine-6-sulfonamide] | – | – | – | – | 7000 ± 1500 | 56 ± 11 | 90.8 ± 12.4 | – | 2110 ± 640 | – | – |
| COc1cc(F)c(S(=O)(=O)N2CCN(S(=O)(=O)c3cccc(NC(C)=O)c3)CC2)c(F)c1 [Compound 133] | 94.88 | 1030 | 60.00 | 1630 | – | – | – | – | – | – | – |
| COc1cc(F)c(S(=O)(=O)N2CCN(S(=O)(=O)c3cccc(N)c3)CC2)c(F)c1 [Compound 134] | 141.67 | 73 | 87.00 | 23.1 | – | – | – | – | – | – | – |
| CC(=O)Nc1ccc(S(=O)(=O)N2CCCN(S(=O)(=O)c3ccc4c(c3)OCCO4)CC2)cc1 [Compound 132] | 123.97 | 2590 | – | 4110 | – | – | 81.1 | – | – | – | – |
| Nc1cccc(S(=O)(=O)N2CCN(S(=O)(=O)c3c(F)cccc3F)CC2)c1 [Compound 137] | 154.42 | 206 | 81.51 | 91.9 | – | – | – | – | – | – | – |
| COc1cc(F)c(S(=O)(=O)N2CCCN(S(=O)(=O)c3ccc(N)cc3)CC2)c(F)c1 [Compound 143] | 150.25 | 1300 | 89.36 | 1300 | – | – | – | – | – | – | – |
| COc1ccc(S(=O)(=O)N2CCN(S(=O)(=O)c3ccc4c(c3)OCCO4)CC2)cc1 [Compound 1, 1-(2,3-dihydrobenzo[b][1,4]dioxin-6-ylsulfonyl)-4-(4-methoxyphenylsulfonyl)piperazine] | – | – | – | 111 | 300 ± 100 | 224 | 92.2 ± 12 | – | 63 ± 20 | 122.1% and 92.2% | – |
| O=C1CN(S(=O)(=O)c2c(F)cccc2F)CCN1S(=O)(=O)c1ccc2c(c1)OCCO2 [Compound 49, 4-(2,6-difluorophenylsulfonyl)-1-(2,3-dihydrobenzo[b][1,4]dioxin-6-ylsulfonyl)piperazin-2-one] | – | – | – | 114 ± 20 | 440 ± 240 | 87 ± 37 | 105 ± 9 | – | – | – | – |
| O=S(=O)(N[C@H]1CC[C@@H](NS(=O)(=O)c2c(F)cccc2F)CC1)c1ccc2c(c1)OCCO2 [Compound 38, N-((cis)-4-(2,6-difluorophenylsulfonamido)cyclohexyl)-2,3-dihydrobenzo[b][1,4]dioxine-6-sulfonamide] | – | – | – | > 35000 | 7000 ± 1500 | 56 ± 11 | 60.7 ± 5.6 | – | 37100 ± 5000 | – | – |
| Cc1cc2c(s1)c1cnn(Cc3ccc(C(F)(F)F)cc3)c(=O)c1n2C [Compound 110, 2,4-Methyl-6-[(4-trifluoromethylphenyl)methyl]-4H-thieno[3,2-b]pyrrole[3,2-d]pyridazinone] | – | – | – | 553 ± 130 | 2200 | 77 | 56.1 ± 5.4 | – | – | – | – |
| Nc1cccc(S(=O)(=O)N2CCN(S(=O)(=O)c3ccc4c(c3)OCCO4)CC2)c1 [Compound 135] | 98.13 | 146 | 82.08 | 41.1 | – | – | – | – | – | – | – |
| COc1cc(F)c(S(=O)(=O)N2CCN(S(=O)(=O)c3ccc(N)cc3)CC2)c(F)c1 [Compound 139] | 166.00 | 183 | 92.46 | 130 | – | – | – | – | – | – | – |
| COc1cc(F)c(S(=O)(=O)N2CCN(S(=O)(=O)c3ccco3)CC2)c(F)c1 [Compound 145] | 106.13 | 116 | 82.49 | 183 | – | – | – | – | – | – | – |
| O=C1CN(S(=O)(=O)c2ccc3c(c2)OCCO3)CCN1S(=O)(=O)c1c(F)cccc1F [Compound 50, 1-(2,6-difluorophenylsulfonyl)-4-(2,3-dihydrobenzo[b][1,4]dioxin-6-ylsulfonyl)piperazin-2-one] | – | – | – | 2420 ± 160 | 3160 | 82 | 96.9 ± 5.6 | – | – | – | – |
| COc1cc(F)c(S(=O)(=O)N2CCN(S(=O)(=O)c3cccs3)CC2)c(F)c1 [Compound 144] | 125.28 | 51.7 | 95.08 | 36.6 | – | – | – | – | – | – | – |
| Cn1c2cc(C=O)sc2c2cnn(Cc3ccccc3F)c(=O)c21 [Compound 84, 2-Formyl-4-methyl-6-[(2-fluorophenyl)methyl]-4H-thieno[3,2-b]pyrrole[3,2-d]pyridazinone] | – | – | – | 16 ± 10 | 100 ± 10 | 239 | 99.8 ± 6.5 | – | – | – | – |
| O=S(=O)(c1ccc2ccccc2c1)N1CCN(S(=O)(=O)c2c(F)cccc2F)CC1 [Compound 26, 1-(2,6-difluorophenylsulfonyl)-4-(naphthalen-2-ylsulfonyl)piperazine] | – | – | – | 66 | 220 ± 53 | 161 ± 29 | 138 ± 11.3 | – | – | – | – |
| COc1ccc(Cn2ncc3c4sc(C)cc4n(C)c3c2=O)cc1F [Compound 121, 2,4-Methyl-6-[(3-fluoro-4-methoxyphenyl)methyl]-4H-thieno[3,2-b]pyrrole[3,2-d]pyridazinone] | – | – | 68.2 ± 7.9 | – | 1000 | – | – | – | 225 ± 97 | 68.2% | 135±20 |
| Cc1cc2c(s1)c1c(C)nn(Cc3ccccc3F)c(=O)c1n2C [Compound 92, 2,4,8-Methyl-6-[(2-fluorophenyl)methyl]-4H-thieno[3,2-b]pyrrole[3,241]-pyridazinone] | – | – | – | – | – | < 80 | – | < 80 | – | – | – |
| CC(C)c1cc2c(s1)c1cnn(Cc3ccccc3F)c(=O)c1n2C [Compound 69, 2-Isopropyl-4-methyl-6-[(2-fluorophenyl)methyl]-4H-thieno[3,2-b]pyrrole[3,2-d]pyridazinone] | – | – | – | 142 ± 20 | 1800 | 302 | 106 ± 6.2 | 100 | – | – | – |
